Source: ChEMBL document CHEMBL1201862, “PubChem BioAssay data set” (2004)
Active and inactive are the calls of the source.

Columns and labels:
[1] = target: Potassium voltage-gated channel subfamily KQT member 2 (Rattus norvegicus, UniProt O88943); experiment: KCNQ2 potassium channel inhibitors, dose response, cell-based, automated electrophysiology, set II, rat KCNQ2 (AID 588637); assay type: functional
[2] = control 3'UTR Renilla luciferase suppression, dose response, counter-screen for Shn3 inhibitor project, cell-based, Clone20-Shn3RL, cherry-picked (AID 624133); assay type: functional
[3] = HepG2 cell cytotoxicity, dose response, cytotoxicity control for Shn3 inhibitor project, CellTiter-Glo, cherry-picked (AID 624134); assay type: functional, cell-based
[4] = Shn3 3'UTR reporter inhibitors, dose response, cell-based, Clone20 osteoblasts, firefly luciferase, cherry-picked (AID 624132); assay type: functional;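 also: firefly luciferase luminescence from reporter carrying the Shn3 3'UTR in osteoblasts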
[5] = target: Photoreceptor-specific nuclear receptor (Homo sapiens, UniProt Q9Y5X4); assay type: functional, cell-based;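 also: CHO-S cells with Gal4-NCOR and VP16-NR2E3 two-hybrid luciferase reporter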
Sequence of Photoreceptor-specific nuclear receptor (Q9Y5X4 whole entry, the tested form may be a part): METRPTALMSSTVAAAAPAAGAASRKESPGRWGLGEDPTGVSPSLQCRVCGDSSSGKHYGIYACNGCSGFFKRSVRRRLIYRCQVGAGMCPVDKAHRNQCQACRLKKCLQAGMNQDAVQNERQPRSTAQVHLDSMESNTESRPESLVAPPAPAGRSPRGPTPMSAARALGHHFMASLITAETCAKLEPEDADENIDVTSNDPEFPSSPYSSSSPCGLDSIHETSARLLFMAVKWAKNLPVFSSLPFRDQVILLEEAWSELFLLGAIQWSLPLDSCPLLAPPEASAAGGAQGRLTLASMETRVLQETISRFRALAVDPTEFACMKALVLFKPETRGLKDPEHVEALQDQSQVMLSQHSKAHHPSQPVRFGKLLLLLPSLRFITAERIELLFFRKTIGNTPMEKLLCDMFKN

[6] = CRF-BP/CRF-R2 complex antagonists, dose response, cell-based, uHTS hits, 384-well (AID 651639); assay type: functional, Homo sapiens; details: read-out: IC50_Mean
[7] = cytotoxicity toward NIH3T3 fibroblasts, dose response, counter-screen, cell-based, ATP luminescence, mouse fibroblasts (AID 2010); assay type: functional;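 also: cells exposed to compound for about 90 hours before reading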
[8] = target: T1, Corticotropin-releasing factor receptor 2/Corticotropin-releasing factor-binding protein (Homo sapiens, UniProt P24387+Q13324); experiment: Dose Response confirmation of uHTS hits for small molecule antagonists of the CRF-binding protein and CRF-R2 receptor complex.; assay type: functional; details: read-out: IC50_Mean
T1 sequence (Q13324 whole entry): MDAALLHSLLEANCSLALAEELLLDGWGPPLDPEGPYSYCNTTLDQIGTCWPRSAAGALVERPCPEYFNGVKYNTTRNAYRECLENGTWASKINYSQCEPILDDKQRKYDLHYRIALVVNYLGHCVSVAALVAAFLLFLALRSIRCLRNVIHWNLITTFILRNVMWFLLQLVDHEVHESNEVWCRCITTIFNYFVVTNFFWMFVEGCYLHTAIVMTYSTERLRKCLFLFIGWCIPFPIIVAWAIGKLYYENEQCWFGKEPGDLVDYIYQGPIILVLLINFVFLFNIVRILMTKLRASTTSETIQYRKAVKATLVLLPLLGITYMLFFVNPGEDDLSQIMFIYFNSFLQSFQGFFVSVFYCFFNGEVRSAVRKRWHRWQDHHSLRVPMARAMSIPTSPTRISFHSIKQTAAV
T1 sequence (P24387 whole entry): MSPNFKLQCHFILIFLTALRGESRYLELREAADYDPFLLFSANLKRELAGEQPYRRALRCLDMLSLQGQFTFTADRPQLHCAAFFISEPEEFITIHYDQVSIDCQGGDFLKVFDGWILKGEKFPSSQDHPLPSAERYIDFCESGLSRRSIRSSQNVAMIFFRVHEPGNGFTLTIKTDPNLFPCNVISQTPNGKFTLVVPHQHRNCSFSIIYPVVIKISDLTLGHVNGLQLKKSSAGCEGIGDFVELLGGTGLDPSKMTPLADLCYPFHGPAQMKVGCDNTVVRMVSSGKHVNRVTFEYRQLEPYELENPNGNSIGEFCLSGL

[9] = target: T1, Corticotropin-releasing factor receptor 2/Corticotropin-releasing factor-binding protein; experiment: activators of CRF receptor 2 with binding protein – uHTS hits, confirmation (AID 602473); assay type: functional; details: read-out: EC50_Mean
[10] = inhibitors of intracellular T. cruzi replication, confirmation, NIH3T3 host cells, beta-gal luminescence (AID 2044); assay type: functional, cell-based;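 also: intracellular parasites grown in NIH/3T3 mouse fibroblasts as host cells; luminescent beta-galactosidase reporter signal from transgenic T. cruzi replicating inside host cells; inhibitors lower the luminescence signal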
[11] = target: Tyrosine-protein phosphatase non-receptor type 5 (Homo sapiens, UniProt P54829); experiment: STEP phosphatase inhibitors, confirmation, biochemical, fluorescence intensity, uHTS hits (AID 602372); assay type: functional; details: read-out: IC50_Mean
Sequence of Tyrosine-protein phosphatase non-receptor type 5 (P54829 whole entry): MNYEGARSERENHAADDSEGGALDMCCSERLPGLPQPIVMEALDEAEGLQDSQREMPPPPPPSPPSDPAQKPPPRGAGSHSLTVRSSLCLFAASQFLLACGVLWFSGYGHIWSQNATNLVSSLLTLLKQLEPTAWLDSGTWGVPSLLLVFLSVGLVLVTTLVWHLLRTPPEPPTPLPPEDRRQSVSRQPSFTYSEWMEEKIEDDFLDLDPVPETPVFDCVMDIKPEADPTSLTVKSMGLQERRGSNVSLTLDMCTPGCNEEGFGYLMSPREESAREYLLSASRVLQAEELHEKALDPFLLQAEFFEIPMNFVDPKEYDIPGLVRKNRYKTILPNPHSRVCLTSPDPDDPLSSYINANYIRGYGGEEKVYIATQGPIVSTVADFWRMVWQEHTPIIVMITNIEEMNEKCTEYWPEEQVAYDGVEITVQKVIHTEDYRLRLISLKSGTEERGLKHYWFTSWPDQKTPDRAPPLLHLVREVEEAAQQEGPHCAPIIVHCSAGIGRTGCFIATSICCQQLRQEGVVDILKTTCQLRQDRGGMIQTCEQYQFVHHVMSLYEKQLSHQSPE

[12] = target: Tyrosine-protein phosphatase non-receptor type 11 (Homo sapiens, UniProt Q06124); experiment: SHP2 phosphatase inhibition, dose response, selectivity assay for STEP inhibitor project, biochemical (AID 602367); assay type: functional; details: read-out: IC50_Mean
Sequence of Tyrosine-protein phosphatase non-receptor type 11 (Q06124 whole entry): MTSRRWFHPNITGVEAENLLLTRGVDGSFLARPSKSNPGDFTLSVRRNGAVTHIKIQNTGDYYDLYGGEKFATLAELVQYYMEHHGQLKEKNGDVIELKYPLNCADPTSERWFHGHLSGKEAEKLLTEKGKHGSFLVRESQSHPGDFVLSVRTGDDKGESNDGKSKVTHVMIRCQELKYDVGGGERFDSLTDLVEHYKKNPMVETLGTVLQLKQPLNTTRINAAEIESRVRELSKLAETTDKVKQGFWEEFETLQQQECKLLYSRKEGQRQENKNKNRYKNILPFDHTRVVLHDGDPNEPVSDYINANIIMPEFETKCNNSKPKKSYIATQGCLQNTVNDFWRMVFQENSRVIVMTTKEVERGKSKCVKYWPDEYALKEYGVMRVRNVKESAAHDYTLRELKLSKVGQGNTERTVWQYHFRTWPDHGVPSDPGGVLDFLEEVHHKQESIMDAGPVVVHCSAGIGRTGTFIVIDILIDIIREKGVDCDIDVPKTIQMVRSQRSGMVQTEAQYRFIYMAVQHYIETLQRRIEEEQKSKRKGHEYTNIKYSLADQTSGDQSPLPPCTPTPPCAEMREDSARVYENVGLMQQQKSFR

[13] = target: Dual specificity protein phosphatase 3 (Homo sapiens, UniProt P51452); experiment: VHR phosphatase inhibition, dose response, selectivity assay for STEP inhibitor project, biochemical (AID 602374); assay type: functional; details: read-out: IC50_Mean
Sequence of Dual specificity protein phosphatase 3 (P51452 whole entry): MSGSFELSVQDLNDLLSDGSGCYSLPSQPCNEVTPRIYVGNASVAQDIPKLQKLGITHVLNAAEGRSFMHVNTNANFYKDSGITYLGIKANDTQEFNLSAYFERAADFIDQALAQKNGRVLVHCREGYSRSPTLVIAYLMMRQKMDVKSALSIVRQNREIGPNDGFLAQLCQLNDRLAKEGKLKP

Prothrombin = Prothrombin (Bos taurus, UniProt P00735); experiment: thrombin inhibition, dose response, biochemical, fluorescence polarization, uHTS hits (AID 602369); assay type: functional
[14] = target: 26S proteasome non-ATPase regulatory subunit 14 (Homo sapiens, UniProt O00487); experiment: inhibition of proteasome subunit RPN11 – biochemical, fluorescence polarization, uHTS hits, confirmation (AID 602368); assay type: functional
Sequence of 26S proteasome non-ATPase regulatory subunit 14 (O00487 whole entry): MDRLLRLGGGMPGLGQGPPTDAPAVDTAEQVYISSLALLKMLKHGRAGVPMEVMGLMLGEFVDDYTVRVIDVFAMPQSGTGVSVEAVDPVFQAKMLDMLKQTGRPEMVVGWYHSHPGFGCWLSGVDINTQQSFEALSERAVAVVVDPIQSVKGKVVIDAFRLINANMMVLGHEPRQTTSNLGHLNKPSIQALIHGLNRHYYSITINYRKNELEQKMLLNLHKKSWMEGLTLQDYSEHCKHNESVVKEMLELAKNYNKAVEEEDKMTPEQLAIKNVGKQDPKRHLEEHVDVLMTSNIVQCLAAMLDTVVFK

Large T antigen = Large T antigen (Simian virus 40, UniProt P03070); assay type: functional, Betapolyomavirus macacae;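 also: Confirmatory-stage PubChem screen for compounds that inhibit SV40 T antigen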
Sequence of Large T antigen (P03070 whole entry): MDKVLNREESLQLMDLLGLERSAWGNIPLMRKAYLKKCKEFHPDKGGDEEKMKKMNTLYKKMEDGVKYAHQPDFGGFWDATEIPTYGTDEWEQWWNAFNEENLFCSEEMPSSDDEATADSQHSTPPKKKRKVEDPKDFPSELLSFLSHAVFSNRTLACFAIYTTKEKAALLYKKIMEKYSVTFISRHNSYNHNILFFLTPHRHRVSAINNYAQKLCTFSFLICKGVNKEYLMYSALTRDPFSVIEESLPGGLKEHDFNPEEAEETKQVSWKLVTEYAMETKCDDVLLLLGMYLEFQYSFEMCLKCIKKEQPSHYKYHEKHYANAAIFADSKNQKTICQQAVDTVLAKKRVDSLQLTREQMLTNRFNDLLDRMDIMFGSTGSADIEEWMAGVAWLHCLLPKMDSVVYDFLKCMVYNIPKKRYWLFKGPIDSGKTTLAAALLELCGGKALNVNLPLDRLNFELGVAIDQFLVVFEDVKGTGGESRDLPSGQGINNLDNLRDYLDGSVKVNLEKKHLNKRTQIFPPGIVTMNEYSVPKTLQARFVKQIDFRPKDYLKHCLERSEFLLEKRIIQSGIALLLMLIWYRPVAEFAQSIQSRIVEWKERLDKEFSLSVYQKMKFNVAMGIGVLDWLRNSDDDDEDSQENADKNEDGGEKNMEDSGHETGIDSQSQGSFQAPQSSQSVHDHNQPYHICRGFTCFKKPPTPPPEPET

[15] = target: 72 kDa type IV collagenase (Homo sapiens, UniProt P08253); experiment: Dose Response validation of uHTS RPN11 inhibitor hits using a MMP-2 Fluorescence assay.; assay type: functional
Sequence of 72 kDa type IV collagenase (P08253 whole entry): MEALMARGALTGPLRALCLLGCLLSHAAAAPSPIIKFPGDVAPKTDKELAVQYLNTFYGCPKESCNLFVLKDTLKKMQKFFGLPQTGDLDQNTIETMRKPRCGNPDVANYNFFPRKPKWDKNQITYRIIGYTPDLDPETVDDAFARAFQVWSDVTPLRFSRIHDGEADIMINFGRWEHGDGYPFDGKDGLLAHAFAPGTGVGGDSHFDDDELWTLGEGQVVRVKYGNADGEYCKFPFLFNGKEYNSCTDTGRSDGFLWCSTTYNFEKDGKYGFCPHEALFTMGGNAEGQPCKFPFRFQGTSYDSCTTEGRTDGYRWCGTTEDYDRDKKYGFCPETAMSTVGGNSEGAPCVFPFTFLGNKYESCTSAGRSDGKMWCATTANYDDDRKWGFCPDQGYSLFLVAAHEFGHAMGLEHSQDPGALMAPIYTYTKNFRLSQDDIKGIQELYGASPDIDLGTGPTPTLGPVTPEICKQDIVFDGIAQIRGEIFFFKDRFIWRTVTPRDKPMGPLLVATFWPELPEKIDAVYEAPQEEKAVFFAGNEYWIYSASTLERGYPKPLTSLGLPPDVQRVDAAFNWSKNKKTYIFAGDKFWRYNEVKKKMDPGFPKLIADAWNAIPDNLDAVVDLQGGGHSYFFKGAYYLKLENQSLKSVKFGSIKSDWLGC

[16] = HeLa cell cytotoxicity, dose response, cytotoxicity control for MgcRacGAP inhibitor project (AID 624300); assay type: functional
[17] = target: T2, Rac GTPase-activating protein 1 (Homo sapiens, UniProt Q9H0H5); experiment: MgcRacGAP GTPase-activating activity inhibitors, confirmation, biochemical, ADP Hunter fluorescence, primary and confirmatory (AID 624330); assay type: functional
T2 sequence (Q9H0H5 whole entry): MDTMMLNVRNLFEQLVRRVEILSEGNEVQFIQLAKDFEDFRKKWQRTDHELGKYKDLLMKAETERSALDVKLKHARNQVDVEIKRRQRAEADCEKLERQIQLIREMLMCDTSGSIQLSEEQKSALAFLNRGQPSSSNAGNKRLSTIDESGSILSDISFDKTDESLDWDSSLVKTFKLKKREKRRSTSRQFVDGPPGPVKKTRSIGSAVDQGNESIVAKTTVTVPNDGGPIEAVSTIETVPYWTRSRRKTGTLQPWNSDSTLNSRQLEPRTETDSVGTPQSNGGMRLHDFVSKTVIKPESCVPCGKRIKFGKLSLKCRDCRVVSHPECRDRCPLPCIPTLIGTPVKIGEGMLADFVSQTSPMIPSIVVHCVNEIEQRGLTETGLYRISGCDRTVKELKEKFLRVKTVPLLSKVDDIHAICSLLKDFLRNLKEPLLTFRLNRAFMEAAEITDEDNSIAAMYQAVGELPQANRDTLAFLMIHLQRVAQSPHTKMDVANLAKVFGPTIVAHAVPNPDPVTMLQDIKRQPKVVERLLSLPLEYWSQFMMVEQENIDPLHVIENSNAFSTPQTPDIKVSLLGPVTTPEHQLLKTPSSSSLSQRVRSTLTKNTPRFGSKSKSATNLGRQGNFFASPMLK

[18] = target: T3, Mitochondrial peptide methionine sulfoxide reductase (Bos taurus, UniProt P54149); experiment: Absorbance-based biochemical high throughput dose response assay for activators of Methionine sulfoxide reductase A (MsrA).; assay type: functional
T3 sequence (P54149 whole entry): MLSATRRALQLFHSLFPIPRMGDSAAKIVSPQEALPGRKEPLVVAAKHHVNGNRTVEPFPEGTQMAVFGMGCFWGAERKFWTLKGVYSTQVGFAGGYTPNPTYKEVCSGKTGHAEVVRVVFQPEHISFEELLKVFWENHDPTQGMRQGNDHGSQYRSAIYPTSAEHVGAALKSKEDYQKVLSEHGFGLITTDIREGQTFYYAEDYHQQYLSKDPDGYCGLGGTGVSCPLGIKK

[19] = target: T4, Tyrosyl-DNA phosphodiesterase 2 (Homo sapiens, UniProt O95551); experiment: human TDP2 enzyme inhibitors, dose response, biochemical, epi absorbance, IC50 (AID 743297)
T4 sequence (O95551 whole entry): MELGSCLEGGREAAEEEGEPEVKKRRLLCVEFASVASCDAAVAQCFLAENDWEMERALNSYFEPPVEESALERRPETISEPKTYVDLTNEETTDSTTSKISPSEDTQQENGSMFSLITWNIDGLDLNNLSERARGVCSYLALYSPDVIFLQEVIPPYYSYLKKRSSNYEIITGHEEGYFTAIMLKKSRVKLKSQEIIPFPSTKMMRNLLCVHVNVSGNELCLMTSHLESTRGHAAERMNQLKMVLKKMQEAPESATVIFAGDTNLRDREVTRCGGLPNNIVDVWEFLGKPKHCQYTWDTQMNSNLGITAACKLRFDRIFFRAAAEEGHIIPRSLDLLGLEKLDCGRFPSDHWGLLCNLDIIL

Streptococcus = experiment: Group A Streptococcus viability loss, dose response, counter-screen for streptokinase expression inhibitor project, luminescence, BacTiterGlo (AID 1915); assay type: functional, organism-based;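 also: potency for reduction of bacterial viability or growth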
[20] = tested on: Streptococcus sp. 'group A'; experiment: growth inhibition of control SK(-) GAS strain, dose response, counter-screen for streptokinase expression inhibitor project, luminescence, kanamycin, BacTiterGlo, confirmation (AID 1900); assay type: functional, organism-based
Streptokinase A = target: T5, Streptokinase A (Streptococcus pyogenes serotype M1, UniProt P10520); experiment: S. pyogenes streptokinase expression inhibitors, potency, dose response, plasminogen activation absorbance, OD405 (AID 1914); assay type: functional, Streptococcus pyogenes M1 GAS;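 also: secreted streptokinase activity via plasminogen activation per viability signal from cell pellet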
T5 sequence (P10520 whole entry): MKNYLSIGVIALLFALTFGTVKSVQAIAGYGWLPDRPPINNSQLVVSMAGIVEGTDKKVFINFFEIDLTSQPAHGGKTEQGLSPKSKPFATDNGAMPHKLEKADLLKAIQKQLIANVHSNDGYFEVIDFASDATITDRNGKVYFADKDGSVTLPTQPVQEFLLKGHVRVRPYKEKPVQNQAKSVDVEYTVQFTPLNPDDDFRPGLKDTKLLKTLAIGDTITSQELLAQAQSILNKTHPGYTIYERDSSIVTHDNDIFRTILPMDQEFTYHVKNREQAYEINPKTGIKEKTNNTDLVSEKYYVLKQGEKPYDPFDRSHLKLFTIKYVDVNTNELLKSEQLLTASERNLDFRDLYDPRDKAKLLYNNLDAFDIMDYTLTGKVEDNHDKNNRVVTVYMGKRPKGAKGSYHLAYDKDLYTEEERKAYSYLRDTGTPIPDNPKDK

Phospholipase A2 = Phospholipase A2 (Homo sapiens, UniProt P04054); assay type: functional;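 also: confirmatory dose-response counterscreen on phospholipase A2, testing hits that came from an ultra-high-throughput screen for ATG4B inhibitors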
Sequence of Phospholipase A2 (P04054 whole entry): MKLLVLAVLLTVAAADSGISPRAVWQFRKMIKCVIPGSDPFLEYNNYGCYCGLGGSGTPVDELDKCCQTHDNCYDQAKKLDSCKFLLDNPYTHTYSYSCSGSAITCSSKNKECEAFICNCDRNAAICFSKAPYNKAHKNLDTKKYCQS

[21] = C. albicans growth with fluconazole, confirmation, fluorescence, retest (AID 2467); assay type: functional, cell-based
Cysteine protease ATG4B = target: T6, Cysteine protease ATG4B (Homo sapiens, UniProt Q9Y4P1); assay type: functional;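 also: Fluorescence-based dose-response confirmation assay measuring inhibition of ATG4B activity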
T6 sequence (Q9Y4P1 whole entry): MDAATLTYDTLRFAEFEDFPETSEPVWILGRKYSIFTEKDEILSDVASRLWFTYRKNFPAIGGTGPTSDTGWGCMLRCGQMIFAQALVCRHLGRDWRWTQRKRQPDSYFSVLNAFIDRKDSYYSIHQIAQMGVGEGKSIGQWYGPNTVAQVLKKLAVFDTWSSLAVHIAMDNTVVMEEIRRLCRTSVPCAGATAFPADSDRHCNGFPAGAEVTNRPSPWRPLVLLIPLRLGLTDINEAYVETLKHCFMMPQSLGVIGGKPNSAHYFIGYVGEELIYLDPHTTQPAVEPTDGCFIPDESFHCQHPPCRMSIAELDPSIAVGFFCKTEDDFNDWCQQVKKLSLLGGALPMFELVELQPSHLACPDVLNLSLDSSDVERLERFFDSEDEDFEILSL

[22] = NIH-3T3 fibroblast cytotoxicity, dose response, cytotoxicity control, cell-based, fluorescence, Alamar Blue, secondary assay (AID 2327); assay type: functional;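 also: NIH-3T3 mouse fibroblasts cultured with fluconazole at 8 µg/mL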
Cytochrome P450 3A4 = Cytochrome P450 3A4 (Homo sapiens, UniProt P08684);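 also: CYP3A4 tested as one member of a cytochrome P450 panel screen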
Sequence of Cytochrome P450 3A4 (P08684 whole entry): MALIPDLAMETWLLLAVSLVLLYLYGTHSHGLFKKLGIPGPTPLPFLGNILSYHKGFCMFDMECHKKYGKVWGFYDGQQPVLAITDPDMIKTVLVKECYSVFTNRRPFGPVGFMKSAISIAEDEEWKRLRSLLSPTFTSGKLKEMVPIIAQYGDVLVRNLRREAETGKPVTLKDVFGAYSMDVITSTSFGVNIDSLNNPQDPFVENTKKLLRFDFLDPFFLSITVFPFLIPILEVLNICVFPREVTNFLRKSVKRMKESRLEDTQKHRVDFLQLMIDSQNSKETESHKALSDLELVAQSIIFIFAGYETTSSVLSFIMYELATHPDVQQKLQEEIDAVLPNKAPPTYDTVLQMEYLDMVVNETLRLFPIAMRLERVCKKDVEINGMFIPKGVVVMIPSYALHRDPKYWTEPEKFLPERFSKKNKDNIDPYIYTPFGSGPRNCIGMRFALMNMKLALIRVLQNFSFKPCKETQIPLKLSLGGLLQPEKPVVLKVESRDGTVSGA

Sequence of Potassium voltage-gated channel subfamily KQT member 2 (O88943 whole entry): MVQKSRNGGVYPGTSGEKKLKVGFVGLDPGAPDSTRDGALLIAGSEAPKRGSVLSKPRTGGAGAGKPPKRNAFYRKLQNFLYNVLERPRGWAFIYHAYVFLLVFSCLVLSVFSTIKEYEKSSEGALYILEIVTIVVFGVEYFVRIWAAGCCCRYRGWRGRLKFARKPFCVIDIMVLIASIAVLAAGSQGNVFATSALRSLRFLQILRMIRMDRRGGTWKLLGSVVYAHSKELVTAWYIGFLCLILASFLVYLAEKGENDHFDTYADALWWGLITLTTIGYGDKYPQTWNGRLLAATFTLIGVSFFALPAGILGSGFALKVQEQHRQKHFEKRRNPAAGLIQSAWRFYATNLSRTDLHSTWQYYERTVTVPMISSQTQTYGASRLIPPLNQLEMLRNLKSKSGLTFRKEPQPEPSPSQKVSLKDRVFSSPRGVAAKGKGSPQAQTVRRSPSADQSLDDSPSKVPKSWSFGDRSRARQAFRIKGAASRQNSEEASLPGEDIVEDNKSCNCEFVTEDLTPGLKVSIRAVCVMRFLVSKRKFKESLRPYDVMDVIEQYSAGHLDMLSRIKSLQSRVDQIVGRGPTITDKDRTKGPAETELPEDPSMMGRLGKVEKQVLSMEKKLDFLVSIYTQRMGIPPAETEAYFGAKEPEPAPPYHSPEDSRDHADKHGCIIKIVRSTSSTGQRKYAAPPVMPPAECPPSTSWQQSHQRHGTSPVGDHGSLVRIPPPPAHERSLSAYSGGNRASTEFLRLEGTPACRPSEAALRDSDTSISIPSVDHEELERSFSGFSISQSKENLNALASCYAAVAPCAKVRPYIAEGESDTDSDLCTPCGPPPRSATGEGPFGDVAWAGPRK

COc1ccc(CCN(C)C(=O)c2cc(-c3ccc(C)cc3)nc3ccccc23)cc1OC
IC50 [1]: 590 nM (active)

C=C1C(=O)OC2CC(C)C3C=CC(=O)C3(C)C(O)C12 (stereo not given)
AC50 [2]: 2.68 µM (active) | AC50 [3]: 5.16 µM (active) | AC50 [4]: < 260 nM (active) | IC50 [5]: 2.74 µM (active)

Cn1nc([N+](=O)[O-])nc1Oc1ccc(C(C)(C)C)cc1
IC50 [6]: 9.25 µM (active) | EC50 [7]: > 60 µM (inconclusive) | IC50 [8]: 12.7 µM (active) | EC50 [9]: > 53 µM (inactive) | EC50 [10]: 201 nM (active)

COc1cc(NC(=S)N2CCN(C)CC2)c(OC)cc1Cl
IC50 [11]: > 80 µM (inactive) | IC50 [12]: 7.71 µM (active) | IC50 [13]: 4 µM (active)

CCOc1cc(/C=C2\NC(=S)N(c3c(C)n(C)n(-c4ccccc4)c3=O)C2=O)ccc1O
IC50 (Prothrombin): 39.7 µM (active) | IC50 [14]: 27.9 µM (active) | IC50 (Large T antigen): 5.37 µM (active) | IC50 [15]: 9.31 µM (active)

COc1cc(C=c2c3ccccc3n3c2cc(-c2ccccc2)[n+]3C)cc(OC)c1OC
CC50 [16]: 100 µM (active) | IC50 [17]: 323 µM (active) | EC50 [18]: > 104 µM (inactive) | IC50 [19]: > 128 µM (inactive)

O=C(Nc1cc(Cl)cc(Cl)c1)c1coc(=O)c(Br)c1
IC50 [6]: > 20 µM (inactive) | IC50 [8]: 8.37 µM (active) | EC50 [9]: 15.1 µM (active)

C/C(=N\Nc1nc(N2CCCCCC2)nc(N2CCCCCC2)n1)c1ccccc1
IC50 [1]: 1620 nM (active) | EC50 (Streptococcus): 9.52 µM (active) | EC50 [20]: 7.16 µM (active) | EC50 (Streptokinase A): 5.5 µM (active)

O=C(CSc1nnnn1-c1ccc2c(c1)OCCO2)Nc1nc2c(s1)CCCC2
IC50 [5]: 1.6 µM (active)

COc1cc(OC)cc(-c2nnc(Nc3nc4c(F)cccc4s3)o2)c1
IC50 (Prothrombin): 62.8 µM (active) | IC50 (Phospholipase A2): > 80 µM (inactive) | IC50 [14]: 30.1 µM (active) | EC50 [21]: > 38 µM (not active) | IC50 [15]: > 100 µM (inactive) | IC50 (Cysteine protease ATG4B): 5.68 µM (active) | EC50 [22]: > 150 µM (inconclusive)

CCN1CCN(C(=S)c2ccc(Br)cc2)CC1
IC50 [11]: 39.4 µM (inactive) | AC50 (Cytochrome P450 3A4): 17.8 µM (inconclusive) | IC50 [12]: 1.88 µM (active) | IC50 [13]: 0.942 µM (active)
